This note sets out measurements from patent publication US20240228489A1, “POSITIVE ALLOSTERIC MODULATORS OF THE MUSCARINIC ACETYLCHOLINE RECEPTOR M1” (Vanderbilt University, priority 2021, published 2024).

The target of assay [1] is T1, human mAChR M1 (Homo sapiens, UniProt P11229).
T1 sequence (P11229 1-460): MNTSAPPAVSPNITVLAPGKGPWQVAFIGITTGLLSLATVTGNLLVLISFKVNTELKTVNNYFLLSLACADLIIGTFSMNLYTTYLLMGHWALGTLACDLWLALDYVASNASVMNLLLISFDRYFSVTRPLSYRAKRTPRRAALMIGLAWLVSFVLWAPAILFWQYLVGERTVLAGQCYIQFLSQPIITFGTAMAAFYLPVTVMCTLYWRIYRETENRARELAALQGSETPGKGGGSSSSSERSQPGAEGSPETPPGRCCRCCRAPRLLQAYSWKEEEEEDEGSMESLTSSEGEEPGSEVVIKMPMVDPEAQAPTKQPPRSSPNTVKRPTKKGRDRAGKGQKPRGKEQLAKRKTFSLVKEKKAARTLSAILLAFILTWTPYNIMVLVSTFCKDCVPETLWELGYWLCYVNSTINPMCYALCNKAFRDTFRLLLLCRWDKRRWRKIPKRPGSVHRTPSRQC
Nature of the assay: mAChR M1 cell-based functional assay (calcium mobilization), PAM mode: increase in the EC20 acetylcholine response. The text has this: (§1) Chinese hamster ovary (CHO-K1) cells stably expressing rat (r)M1 were purchased from the American Type Culture Collection and cultured according to their indicated protocol. CHO cells stably expressing human (h)M2, hM3, and hM5 were described previously (Levey, et al., 1991); hM1 and hM4 cDNAs were purchased from Missouri S&T cDNA Resource; rM4 cDNA was provided by T. I. Bonner (National Institutes of Health, Bethesda, MD). rM2 and rM3 were cloned from a rat brain cDNA library and sequence verified. hM1, rM2, rM3, hM4, and rM4 cDNAs were used to stably transfect CHO-K1 cells purchased from the American Type Culture Collection using Lipofectamine2000. To make stable rM2, hM2, rM3, hM4, and rM4 cell lines for use in calcium mobilization assays, these cells also were stably transfected with a chimeric G-protein (Gqi5) (provided by B. R. Conklin, University of California, San Francisco) using Lipofectamine 2000. rM1, hM1, rM3, hM3, rM5, and hM5 cells were grown in Ham's F-12 medium containing 10% heat-inactivated fetal bovine serum (FBS), 20 mM HEPES, and 50 μg/mL G418 sulfate. rM2-Gqi5, hM2-Gqi5, and hM4-Gqi5 cells were grown in the same medium also containing 500 μg/mL Hygromycin B. Stable rM4-Gqi5 cells were grown in DMEM containing 10% heat-inactivated FBS, 20 mM HEPES, 400 μg/mL G418 sulfate, and 500 μg/mL Hygromycin B.
(§2) For high throughput measurement of agonist-evoked increases in intracellular calcium, CHO-K1 cells stably expressing muscarinic receptors were plated in growth medium lacking G418 and hygromycin at 15,000 cells/20 μL/well in Greiner 384-well black-walled, tissue culture (TC)-treated, clear-bottom plates (VWR). Cells were incubated overnight at 37° C. and 5% C02. The next day, cells were washed using an ELX 405 (BioTek) with four washes (80 μL) of assay buffer then aspirated to 20 μL. Next, 20 μL of 16 μM Fluo-4/acetoxymethyl ester (Invitrogen, Carlsbad, CA) prepared as a 2.3 mM stock in DMSO and mixed in a 1:1 ratio with 10% (w/v) Pluronic F-127 and diluted in assay buffer was added to the wells and the cell plates were incubated for 50 min at 37° C. and 5% C02. Dye was removed by washing with the ELX 405 (four 80 μL washes of assay buffer) then aspirated to 20 μL. Compound master plates were formatted in an 11 point CRC format (1:3 dilutions) in 100% DMSO with a starting concentration of 10 mM using the BRAVO liquid handler (Agilent). Test compound CRCs were then transferred to daughter plates (240 nL) using the Echo acoustic plate reformatter (Labcyte, Sunnyvale, CA) and then diluted into assay buffer (40 μL) to a 2× stock using a Thermo Fisher Combi (Thermo Fisher Scientific, Waltham, MA).
Calcium flux was measured using the Functional Drug Screening System (FDSS) 6000 (Hamamatsu Corporation, Tokyo, Japan) as an increase in the fluorescent static ratio. Compounds were applied to cells (20 μL, 2×) using the automated system of the FDSS 6000 at 4 s into the 300 s protocol and the data were collected at 1 Hz. At 144 s into the 300 s protocol, 10 μL of an EC20 concentration of the muscarinic receptor agonist acetylcholine was added (5×), followed by the addition of 12 μL of an EC80 concentration of acetylcholine at the 230 s time point (5×). Agonist activity was analyzed as a concentration-dependent increase in calcium mobilization upon compound addition. Emax values for agonist activity are expressed relative to the maximum for acetylcholine. Positive allosteric modulator activity was analyzed as a concentration-dependent increase in the EC20 acetylcholine response. Antagonist activity was analyzed as a concentration-dependent decrease in the EC80 acetylcholine response. Concentration-response curves were generated using a four-parameter logistical equation in XLfit curve fitting software (IDBS, Bridgewater, NJ) for Excel (Microsoft, Redmond, WA) or Prism (GraphPad Software, Inc., San Diego, CA). […]
In general terms: Calcium flux is commonly read through the fluorescence of an indicator in the cells.

The target of assay [2] is T1, human mAChR M1. The experiment in a line: mAChR M1 cell-based functional assay (calcium mobilization), agonist mode: compound alone, Emax relative to acetylcholine maximum. To be noted: for pEC50 / Agonist Activity Human M1 EC50: human mAChR M1; for Emax: relative to the maximum for acetylcholine.
From the text: as §1, §2
Calcium flux was measured using the Functional Drug Screening System (FDSS) 6000 (Hamamatsu Corporation, Tokyo, Japan) as an increase in the fluorescent static ratio. Compounds were applied to cells (20 μL, 2×) using the automated system of the FDSS 6000 at 4 s into the 300 s protocol and the data were collected at 1 Hz. At 144 s into the 300 s protocol, 10 μL of an EC20 concentration of the muscarinic receptor agonist acetylcholine was added (5×), followed by the addition of 12 μL of an EC80 concentration of acetylcholine at the 230 s time point (5×). Agonist activity was analyzed as a concentration-dependent increase in calcium mobilization upon compound addition. Emax values for agonist activity are expressed relative to the maximum for acetylcholine. Positive allosteric modulator activity was analyzed as a concentration-dependent increase in the EC20 acetylcholine response. Antagonist activity was analyzed as a concentration-dependent decrease in the EC80 acetylcholine response. Concentration-response curves were generated using a four-parameter logistical equation in XLfit curve fitting software (IDBS, Bridgewater, NJ) for Excel (Microsoft, Redmond, WA) or Prism (GraphPad Software, Inc., San Diego, CA).

pEC50: −log10 of the molar value.

Turning to `[2H]C([2H])([2H])Oc1cnc2c(c1)C(=O)N(Cc1c(F)cc(-c3ccc(OC)c4nn(C)cc34)cc1F)C2([2H])[2H]` [Compound 146, 6-(2,6-difluoro-4-(7-methoxy-2-methyl-2H-indazol-4-yl)benzyl)-3-(methoxy-d3)-6,7-dihydro-5H-pyrrolo[3,4-b]pyridin-5-one-7,7-d2], on human mAChR M1 [1], the pEC50 was 6.75 and the maximum response (Emax) was 79%. On human mAChR M1 [2], the pEC50 was 5.33 and the Emax was found to be 28%.

For the compound `[2H]C1([2H])c2ncccc2C(=O)N1Cc1c(F)cc(-c2cccc3nn(C4COC4)cc23)cc1F` [Compound 49, 6-(2,6-difluoro-4-(2-(oxetan-3-yl)-2H-indazol-4-yl)benzyl)-6,7-dihydro-5H-pyrrolo[3,4-b]pyridin-5-one-7,7-d2], at human mAChR M1 [1], the negative-log EC50 (pEC50) was 6.07 and the maximal effect (Emax) turned out to be 80%. Moreover, on human mAChR M1 [2], the “Agonist Activity Human M1 EC50” value is on record as “Inactive” and the Emax was determined as 2%.

For `[2H]C1([2H])c2ncccc2C(=O)N1Cc1c(Cl)cc(-c2cccc3nn(C)cc23)cc1Cl` [Compound 227, 6-(2,6-dichloro-4-(2-methyl-2H-indazol-4-yl)benzyl)-6,7-dihydro-5H-pyrrolo[3,4-b]pyridin-5-one-7,7-d2], on human mAChR M1 [1], the pEC50 is 6.05 and the Emax was determined as 63%. On human mAChR M1 [2], the “Agonist Activity Human M1 EC50” value is reported as “Inactive” and the maximal effect (Emax) was found to be 1%.

Regarding `[2H]C1([2H])c2ncccc2C(=O)N1Cc1c(F)cc(-c2ccnc3nn(C)cc23)cc1C1CC1` [Compound 208, 6-(2-cyclopropyl-6-fluoro-4-(2-methyl-2H-pyrazolo[3,4-b]pyridin-4-yl)benzyl)-6,7-dihydro-5H-pyrrolo[3,4-b]pyridin-5-one-7,7-d2], on human mAChR M1 [1], the pEC50 is 6.85 and the Emax is 88%. In addition, at human mAChR M1 [2], the pEC50 was 5.92 and the maximal response (Emax) stood at 59%.

As for `[2H]C1([2H])c2ncccc2C(=O)N1Cc1ccc(-c2cccc3nn(C)cc23)cc1F` [Compound 23, 6-(2-fluoro-4-(2-methyl-2H-indazol-4-yl)benzyl)-6,7-dihydro-5H-pyrrolo[3,4-b]pyridin-5-one-7,7-d2], on human mAChR M1 [1], the pEC50 was 5.95 and the Emax is 76%. At human mAChR M1 [2], the “Agonist Activity Human M1 EC50” value is recorded as “Inactive” and the Emax is 7%.

`[2H]C1([2H])c2ncccc2C(=O)N1Cc1ccc(-c2ccc3nn(C)cc3c2)cc1F` [Compound 9, 6-(2-fluoro-4-(2-methyl-2H-indazol-5-yl)benzyl)-6,7-dihydro-5H-pyrrolo[3,4-b]pyridin-5-one-7,7-d2]: on human mAChR M1 [1], the negative logarithm of the EC50 (pEC50) was 6.16 and the maximal effect (Emax) is 71%. At human mAChR M1 [2], the “Agonist Activity Human M1 EC50” value is “Inactive” and the maximum response (Emax) amounted to 6%.

With `[2H]C1([2H])c2ncccc2C(=O)N1Cc1c(F)cc(-c2cccc3nn(C([2H])([2H])[2H])cc23)cc1C1CCCC1` [Compound 224, 6-(2-cyclopentyl-6-fluoro-4-(2-(methyl-d3)-2H-indazol-4-yl)benzyl)-6,7-dihydro-5H-pyrrolo[3,4-b]pyridin-5-one-7,7-d2], on human mAChR M1 [1], the negative logarithm of the EC50 (pEC50) was 5.19 and the maximal response (Emax) stood at 62%. Moreover, on human mAChR M1 [2], the “Agonist Activity Human M1 EC50” value is listed as “Inactive” and the Emax worked out at 1%.

For the compound `[2H]C1([2H])c2ncccc2C(=O)N1Cc1c(F)cc(-c2ccc(OC)c3c2cnn3C([2H])([2H])[2H])cc1F` [Compound 69, 6-(2,6-difluoro-4-(7-methoxy-1-(methyl-d3)-1H-indazol-4-yl)benzyl)-6,7-dihydro-5H-pyrrolo[3,4-b]pyridin-5-one-7,7-d2], at human mAChR M1 [1], the pEC50 is 5.66 and the maximal effect (Emax) amounted to 68%. At human mAChR M1 [2], the “Agonist Activity Human M1 EC50” value is reported as “Inactive” and the Emax amounted to 2%.

With `[2H]C1([2H])c2ncccc2C(=O)N1Cc1c(F)cc(-c2ccc(OC(F)F)c3nn(C)cc23)cc1F` [Compound 102, 6-(4-(7-(difluoromethoxy)-2-methyl-2H-indazol-4-yl)-2,6-difluorobenzyl)-6,7-dihydro-5H-pyrrolo[3,4-b]pyridin-5-one-7,7-d2], at human mAChR M1 [1], the negative logarithm of the EC50 (pEC50) is 6.33 and the maximum response (Emax) was determined as 77%. On human mAChR M1 [2], the “Agonist Activity Human M1 EC50” value is recorded as “Inactive” and the maximal response (Emax) was determined as 9%.

With `[2H]C1([2H])c2ncccc2C(=O)N1Cc1c(F)cc(-c2ccc(OC3CC3)c3nn(C)cc23)cc1F` [Compound 124, 6-(4-(7-cyclopropoxy-2-methyl-2H-indazol-4-yl)-2,6-difluorobenzyl)-6,7-dihydro-5H-pyrrolo[3,4-b]pyridin-5-one-7,7-d2], at human mAChR M1 [1], the pEC50 was 6.61 and the Emax was 74%. For the same compound, at human mAChR M1 [2], the pEC50 was 5.08 and the Emax came out at 32%.

Turning to `[2H]C1([2H])c2ncccc2C(=O)N1Cc1c(F)cc(-c2ccc(OC3CN(C4CCCCC4)C3)c3nn(C)cc23)cc1F` [Compound 189, 6-(4-(7-((1-cyclohexylazetidin-3-yl)oxy)-2-methyl-2H-indazol-4-yl)-2,6-difluorobenzyl)-6,7-dihydro-5H-pyrrolo[3,4-b]pyridin-5-one-7,7-d2], at human mAChR M1 [1], the pEC50 is 6.20 and the Emax was 72%. Also, at human mAChR M1 [2], the “Agonist Activity Human M1 EC50” value is reported as “Inactive” and the Emax amounted to 3%.

Turning to `[2H]C1([2H])c2ncccc2C(=O)N1Cc1c(F)cc(-c2ccc(OC(C)C)c3nn(C([2H])([2H])[2H])cc23)cc1F` [Compound 99, 6-(2,6-difluoro-4-(7-isopropoxy-2-(methyl-d3)-2H-indazol-4-yl)benzyl)-6,7-dihydro-5H-pyrrolo[3,4-b]pyridin-5-one-7,7-d2], on human mAChR M1 [1], the negative-log EC50 (pEC50) was 6.55 and the Emax came out at 83%. For the same compound, at human mAChR M1 [2], the pEC50 is 5.24 and the Emax came out at 25%.

As a reminder, the pEC50 is the negative decadic logarithm of the EC50, by convention in mol/L. As usually defined, the Emax is the size of the effect at its maximum, as opposed to the concentration needed.
